≈ marks a conversion by molar mass, not a printed value.
Key:
A549 = assay: Cytotoxicity against human A549 cells; format: functional; conditions: read-out: ED50 (the source's name)
Artemia salina = assay: Toxicity in Artemia salina; format: organism-based; conditions: in vivo
MCF7 = assay: Cytotoxicity against human MCF7 cells; format: functional; conditions: read-out: ED50 (the source's name)
HT-29 = assay: Cytotoxicity against human HT-29 cells; format: functional; conditions: read-out: ED50 (the source's name)
[1] = tested on: Agrobacterium tumefaciens; assay: Antitumor activity against Agrobacterium tumefaciens-induced crown gall tumor in potato tubers at by potato disk assay; format: functional
Spodoptera eridania = assay: Insecticidal activity against Spodoptera eridania assessed as mortality at 12 ppm; format: functional
[2] = tested on: Diabrotica undecimpunctata; assay: Insecticidal activity against Diabrotica undecimpunctata assessed as mortality at 12 ppm; format: functional
Tetranychus urticae = assay: Insecticidal activity against Tetranychus urticae assessed as mortality at 12 ppm; format: functional
Aphis gossypii = assay: Insecticidal activity against Aphis gossypii assessed as mortality at 12 ppm; format: functional

Structure (SMILES) | EC50 (A549) [µg/mL] | LC50 (Artemia salina) [ppm] | EC50 (MCF7) [µg/mL] | EC50 (HT-29) [µg/mL] | inhibition (INH) [1] [%] | Activity (Spodoptera eridania) [%] | Activity [2] [%] | Activity (Tetranychus urticae) [%] | Activity (Aphis gossypii) [%]
CCCCC/C=C\C/C=C\CCCC(C)=O | > 10 | 2.9 | > 10 | > 10 |  |  |  |  | 
CC/C=C\C/C=C\C/C=C\CCCC(C)=O | > 10 | 3 | 5.15 (≈ 23.4 µM) | 3.01 (≈ 13.7 µM) |  |  |  |  | 
C=C[C@](C)(O)CC/C=C(/C)CCC=C(C)C | > 10 | 5.75 | > 10 | > 10 |  |  |  |  | 
COc1cccc2c1C(=O)c1c(O)c3c(c(O)c1C2=O)C[C@@](O)(C(=O)CO)C[C@@H]3O[C@H]1C[C@H](N)[C@H](O)[C@H](C)O1 [DOXORUBICIN] | 0.0018 (≈ 0.00331 µM) | 0.088 | 0.051 (≈ 0.0938 µM) | 0.012 (≈ 0.0221 µM) |  |  |  |  | 
C=C1OC(=O)/C(=C/CCCCCCCCCCCCCCC)[C@@H]1O [ISOLINDERANOLIDE] | 4.57 (≈ 13.6 µM) | 0.96 | 3.12 (≈ 9.27 µM) | 3.07 (≈ 9.12 µM) | 44.9 | 0 | 20 | 0 | 0
C=C1OC(=O)/C(=C/CCCC/C=C\CCCCCCCCC)[C@@H]1O [ISOLINDERENOLIDE] | 3.01 (≈ 9 µM) | 0.52 | 2.58 (≈ 7.71 µM) | 1.9 (≈ 5.68 µM) | 41.4 | 0 | 0 | 0 | 0
C=C1OC(=O)/C(=C/CCCCCCCCCCCCC)[C@@H]1O [ISOOBTUSILACTONE A] | 3.75 (≈ 12.2 µM) | 0.72 | 2.31 (≈ 7.49 µM) | 2.48 (≈ 8.04 µM) |  | 0 | 0 | 0 | 0
C=CCCCCCCCCC/C=C1/C(=O)OC(=C)[C@H]1O [ISOOBUTASILACTONE] | > 10 | 0.065 | 4.6 (≈ 16.5 µM) | 2.92 (≈ 10.5 µM) |  | 0 | 0 | 0 | 0
C=C1OC(=O)/C(=C\CCCCCCCCCCCCCCC)[C@@H]1O [LINDERANOLIDE] | 0.928 (≈ 2.76 µM) | 5.23 | 73.6 (≈ 219 µM) | 30.5 (≈ 90.6 µM) |  |  |  |  | 
C=C1OC(=O)/C(=C\CCCCCCCCCCCCC)[C@@H]1O [OBTUSILACTONE A] | > 10 | 0.89 | 5.12 (≈ 16.6 µM) | 2.93 (≈ 9.5 µM) |  | 0 | 0 | 0 | 0
C=CCCCCCCCCC/C=C1\C(=O)OC(=C)[C@H]1O [OBTUSILACTONE] | 3.32 (≈ 11.9 µM) | 0.035 | 4.58 (≈ 16.5 µM) | 3.26 (≈ 11.7 µM) | 64.2 | 0 | 0 | 0 | 0

Source: ChEMBL document CHEMBL1158999, “Biologically active gamma-lactones and methylketoalkenes from Lindera benzoin” (J Nat Prod, 1992)
